Laboratory results reported in ChEMBL document CHEMBL1132953, “Design and synthesis of pyrrolidine-5,5-trans-lactams (5-oxo-hexahydro-pyrrolo[3,2-b]pyrroles) as novel mechanism-based inhibitors of human cytomegalovirus protease. 1. The alpha-methyl-trans-lactam template” (J Med Chem, 2000).

How the values were obtained:
[1] = Tested for inhibitory activity against elastase.
Prothrombin = Prothrombin (Homo sapiens, UniProt P00734); test: Tested for inhibitory activity against Thrombin.

IC50 [1]: 7.58 µM
IC50 (Prothrombin): 6.2 µM
SMILES: CC(=O)OCC(=O)N1C(=O)C[C@@H]2[C@@H]1CCN2C(=O)OCc1ccccc1
